Values belong to the molecule of their own block, whether it stands above or below them.
Tests used:
[1] = Suspension competition test of crystal forms; format: physicochemical
Experimental: In order to further study the transformation relationship between the free anhydrous crystal form and the hydrate crystal form, a suspension competition test was carried out on the anhydrous crystal form B/G and the hydrate crystal form A. Firstly, the suspension competition test between […] B and G was set up at 5° C., room temperature and 50° C. in ACN and room temperature in EtOAc. The specific steps are as follows: 1) saturated solution of the free state was prepared in different solvent systems at corresponding temperatures; 2) the corresponding free crystal form sample was added into 0.5 mL of the saturated solution to form a suspension; 3) the mixture was magnetically stirred under corresponding temperature conditions; 4) after stirring for 1 to 5 days, the solid was separated for XRPD testing.
Therefore, a suspension competition test of stable anhydrous crystal form B at room temperature and hydrate form A with different water activities (aw=0/0.2/0.4/0.6/0.8/1.0) of ACN/H2O at room temperature was set up. […] Reference source not found.

NaV1.8 = molecular target: T1, NaV1.8 (Homo sapiens, UniProt Q9Y5Y9); test: Whole-cell patch-clamp, blocking activity on NaV1.8 channel current (CHO cell line stably expressing NaV1.8); format: cell-based; details: statement in words
T1 construct: expressed in transfected cells
T1 sequence (Q9Y5Y9 whole entry): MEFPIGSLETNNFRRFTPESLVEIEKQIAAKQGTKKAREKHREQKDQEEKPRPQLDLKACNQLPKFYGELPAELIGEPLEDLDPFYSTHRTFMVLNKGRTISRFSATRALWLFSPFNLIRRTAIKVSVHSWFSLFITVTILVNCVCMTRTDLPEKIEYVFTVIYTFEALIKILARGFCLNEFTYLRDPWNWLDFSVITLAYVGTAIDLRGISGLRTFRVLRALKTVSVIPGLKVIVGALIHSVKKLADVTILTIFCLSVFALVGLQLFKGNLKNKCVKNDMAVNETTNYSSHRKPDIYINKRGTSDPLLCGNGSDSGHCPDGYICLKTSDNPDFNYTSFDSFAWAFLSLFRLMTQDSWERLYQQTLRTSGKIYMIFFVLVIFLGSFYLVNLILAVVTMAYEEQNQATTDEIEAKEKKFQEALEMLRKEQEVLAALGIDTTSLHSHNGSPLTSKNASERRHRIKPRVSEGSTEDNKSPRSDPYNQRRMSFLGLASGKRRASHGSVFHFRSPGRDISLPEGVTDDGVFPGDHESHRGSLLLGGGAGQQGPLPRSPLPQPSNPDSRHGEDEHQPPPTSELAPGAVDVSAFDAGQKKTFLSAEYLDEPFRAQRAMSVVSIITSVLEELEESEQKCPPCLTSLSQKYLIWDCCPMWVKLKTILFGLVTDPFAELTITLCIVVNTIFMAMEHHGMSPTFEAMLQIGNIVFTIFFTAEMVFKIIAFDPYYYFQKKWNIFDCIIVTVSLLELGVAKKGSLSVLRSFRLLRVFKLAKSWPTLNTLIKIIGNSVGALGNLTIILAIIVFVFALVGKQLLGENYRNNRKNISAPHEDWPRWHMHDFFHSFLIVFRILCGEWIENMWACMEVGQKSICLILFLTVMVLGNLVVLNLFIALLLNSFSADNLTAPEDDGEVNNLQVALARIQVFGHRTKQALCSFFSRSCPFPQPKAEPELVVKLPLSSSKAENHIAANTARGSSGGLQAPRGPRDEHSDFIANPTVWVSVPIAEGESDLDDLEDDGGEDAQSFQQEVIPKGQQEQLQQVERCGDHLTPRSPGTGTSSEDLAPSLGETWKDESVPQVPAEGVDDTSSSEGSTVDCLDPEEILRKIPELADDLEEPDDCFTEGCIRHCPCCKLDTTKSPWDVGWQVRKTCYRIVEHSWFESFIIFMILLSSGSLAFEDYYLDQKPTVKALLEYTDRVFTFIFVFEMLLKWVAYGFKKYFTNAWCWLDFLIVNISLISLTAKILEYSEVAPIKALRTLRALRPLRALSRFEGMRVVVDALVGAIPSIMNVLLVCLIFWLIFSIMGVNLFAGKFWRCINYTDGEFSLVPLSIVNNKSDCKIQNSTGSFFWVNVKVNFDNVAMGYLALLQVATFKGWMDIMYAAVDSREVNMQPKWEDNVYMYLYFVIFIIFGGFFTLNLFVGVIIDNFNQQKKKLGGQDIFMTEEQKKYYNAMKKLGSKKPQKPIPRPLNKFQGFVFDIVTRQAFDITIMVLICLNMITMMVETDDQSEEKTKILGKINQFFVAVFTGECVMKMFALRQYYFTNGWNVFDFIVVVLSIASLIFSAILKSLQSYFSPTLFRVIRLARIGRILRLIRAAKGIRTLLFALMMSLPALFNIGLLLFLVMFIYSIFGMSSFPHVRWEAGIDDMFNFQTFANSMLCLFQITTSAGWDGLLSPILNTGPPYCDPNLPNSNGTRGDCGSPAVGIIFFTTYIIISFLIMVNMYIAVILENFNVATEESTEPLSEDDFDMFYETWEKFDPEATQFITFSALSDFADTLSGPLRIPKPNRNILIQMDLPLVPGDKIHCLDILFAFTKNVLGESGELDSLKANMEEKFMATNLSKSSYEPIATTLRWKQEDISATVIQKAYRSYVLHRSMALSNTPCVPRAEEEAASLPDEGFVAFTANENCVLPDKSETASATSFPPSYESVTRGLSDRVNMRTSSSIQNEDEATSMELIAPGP
Experimental: • 1. Test method: the patch-clamp technique was used to detect the effects of compound on the voltage-gated sodium channels (NaV) 1.1 to 1.8 subtype currents
• 1) the specific information of CHO cell line stably expressing NaV1.8 channel was as follows: SCN10A: NM_006514 • 2) Cells were cultured in HAM'S/F-12 medium containing 10% fetal bovine serum, 10 μg/mL Blasticidin, 200 μg/mL Hygromycin B and 100 μg/mL Zeocin at 37° C. and 5% carbon dioxide concentration. • 3) Cell passage: the old medium was removed and washed once with PBS, and then 1 mL of 0.25%-Trypsin-EDTA solution was added and incubated at 37° C. for 1.5 minutes. When the cells were detached from the bottom of the plate, 5 mL of 37° C. prewarmed complete medium was added. […]
Double-pulse mode was performed by two 0 mV depolarization test pulses (TP1 and TP2) for 50 ms. […] Data acquisition was repeated at 20 s intervals and the current peaks at two test pulses were measured.
While the NaV channel current recorded in the whole cell was stable, the drug was administered, and each drug concentration was applied for 5 minutes (or the current is stabilized) and then the next concentration was detected; each test compound was detected at multiple concentrations. […] The current detected by each cell in the external fluid without the compounds was used as its own control group. Multiple cells were detected independently and repeatedly. […]

[2] = Pharmacokinetics in rats, single intravenous injection or intragastric administration; format: in vivo, male Sprague Dawley rats
Experimental: In this experimental embodiment, in vivo pharmacokinetic evaluation was evaluated in rats by single intravenous injection or intragastric oral administration.
Experimental methods and conditions: male Sprague Dawley rats; all animals were fasted overnight, and were given a single dose of the compound to be tested at 1 mg/kg (intravenous injection, solvent 5% DMSO/10% Solutol/85% Saline) and 10 mg/kg (intragastric administration) respectively, at 5 min, 15 min, 30 min, 1 hr, 2 hr, 4 hr, 6 hr, 8 hr and 24 h after drug administration, blood was collected from the submandibular vein, about 0.20 mL per sample was collected, heparin sodium was used for anticoagulation, and then it was placed on ice after collection and centrifuged within 1 hour to separate the plasma for testing. The concentration of the drug in the plasma was measured by liquid tandem mass spectrometry (LC/MS/MS), and the measured concentration was used to calculate pharmacokinetic parameters.

[3] = Solid-state stability experiment (XRPD, HPLC); format: physicochemical; details: for Crystal form variation: XRPD
Experimental: The stability test in the high-performance liquid chromatography (IPLC) test used in the present disclosure is tested by an Agilent 1260 high-performance liquid chromatograph, and the analytical conditions are shown in Table 11.
In order to evaluate the solid stability of the free anhydrous crystal form B, an appropriate amount of the sample was respectively weighed, placed at 60° C. for 24 hours, and exposed at 25° C./60% RH and 40° C./75[…] for one week. The crystal changes of the solid samples placed under different conditions were tested by XRPD, and the chemical stability was evaluated by HPLC.

[4] = 25° C./60% RH/exposure, one week
[5] = 40° C./75% RH/exposure, one week
[6] = statement in words, all test conditions

- crystal form obtained in suspension competition ([1]; ACN/H2O, room temperature, aw=0 to 0.4): anhydrous crystal form B was obtained
- crystal form obtained in suspension competition ([1]; ACN/H2O, room temperature, aw=0.6 to 1 (pure water)): hydrate crystal form A was obtained
- Competition test result (crystal form obtained) ([1]; test 22-A1, ACN (aw to 0), room temperature): Free crystal form B
- Competition test result (crystal form obtained) ([1]; test 22-A2, ACN/H2O (981:19, aw to 0.2), room temperature): Free crystal form B
- Competition test result (crystal form obtained) ([1]; test 22-A3, ACN/H2O (957:43, aw to 0.4), room temperature): Free crystal form B
- Competition test result (crystal form obtained) ([1]; test 22-A4, ACN/H2O (924:76, aw to 0.6), room temperature): Free crystal form B
- Competition test result (crystal form obtained) ([1]; test 22-A5, ACN/H2O (87:13, aw to 0.8), room temperature): Free crystal form B
- Competition test result (crystal form obtained) ([1]; test 22-A6, H2O (aw to 1.0), room temperature): Free crystal form B
Compound: O=C(Nc1ccc[n+]([O-])c1)c1cc(Cl)c(Cl)cc1Oc1ccc(OC(F)(F)F)cc1 [Crystal form A/B]

- blocking effect on NaV1.8 channel activity (NaV1.8): obvious blocking effect
- F ([2]; rat, intragastric 10 mg/kg): 72.59%
- pharmacokinetic absorption in rats ([2]; statement in words): good pharmacokinetic absorption
Compound: O=C(Nc1ccc[n+]([O-])c1)c1cc(Cl)c(Cl)cc1Oc1ccc(OC(F)(F)F)cc1 [Compound of formula (I)]

- Purity [3, 4]: 99.90 area %
- Relative to initial purity [3, 4]: 99.99%
- Crystal form variation [3, 4]: Constant
- Purity [3, 5]: 99.90 area %
- Relative to initial purity [3, 5]: 99.99%
- Crystal form variation [3, 5]: Constant
- Purity ([3]; 60° C./closed, 24 hours): 99.91 area %
- Relative to initial purity ([3]; 60° C./closed, 24 hours): 100.00%
- Crystal form variation ([3]; 60° C./closed, 24 hours): Constant
- Purity ([3]; Start): 99.91 area %
- HPLC purity under the test conditions [3, 6]: not decreased obviously
- crystal form change under the test conditions [3, 6]: not changed
- stability and druggability compared with hydrate crystal form ([1]; conclusion in words): better stability
Compound: O=C(Nc1ccc[n+]([O-])c1)c1cc(Cl)c(Cl)cc1Oc1ccc(OC(F)(F)F)cc1 [Free crystal form B]

- Competition test result (crystal form obtained) ([1]; test 22-B1, ACN (aw to 0), 5° C.): Free crystal form B
- Competition test result (crystal form obtained) ([1]; test 22-B2, ACN (aw to 0), room temperature): Free crystal form B
- Competition test result (crystal form obtained) ([1]; test 22-B3, ACN (aw to 0), 50° C.): Free crystal form B
- Competition test result (crystal form obtained) ([1]; test 22-B4, EtOAc (aw to 0), room temperature): Free crystal form B
Compound: O=C(Nc1ccc[n+]([O-])c1)c1cc(Cl)c(Cl)cc1Oc1ccc(OC(F)(F)F)cc1 [Crystal form B/G]
- crystal form obtained in suspension competition ([1]; ACN at 5° C., room temperature, 50° C. and EtOAc at room temperature): only the free crystal form B was obtained
